Experimental data taken from PubChem BioAssay AID330 (DTP/NCI, 2004).
“And” between values parts separate entries of the source, which are not always exact repeats. Equal values may be shown once. Inconclusive results and toxic doses are left out.

Test system: P388 leukemia ip, CD2F1 mice, survival T/C
Assay: NCI In Vivo Anticancer Drug Screen. Data for tumor model P388 Leukemia (intraperitoneal) in CD2F1 (CDF1) mice
Details: endpoint: median survival time, higher = longer survival
Outline: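 Mice carrying the transplanted tumor received test compound or vehicle. Survival was recorded in each group, and the value is the treated-group measurement divided by that of the vehicle-treated control group.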

[1] = dose: 50.0 mg/kg/injection, schedule: Q01DX005 (ip), vehicle: saline
[2] = dose: 60.0 mg/kg/injection, schedule: Q01DX005 (ip), vehicle: saline with Tween-80
[3] = dose: 120.0 mg/kg/injection, schedule: Q01DX005 (ip), vehicle: saline with Tween-80
[4] = dose: 240.0 mg/kg/injection, schedule: Q01DX005 (ip), vehicle: saline with Tween-80
[5] = dose: 100.0 mg/kg/injection, schedule: Q01DX005 (ip), vehicle: saline
[6] = dose: 200.0 mg/kg/injection, schedule: Q01DX005 (ip), vehicle: saline
[7] = dose: 25.0 mg/kg/injection, schedule: Q01DX009 (ip), vehicle: saline with Tween-80
[8] = dose: 100.0 mg/kg/injection, schedule: Q01DX009 (ip), vehicle: saline with Tween-80
[9] = dose: 50.0 mg/kg/injection, schedule: Q01DX005 (ip), vehicle: Klucel (hydroxypropylcellulose) (HPC)
[10] = dose: 100.0 mg/kg/injection, schedule: Q01DX005 (ip), vehicle: Klucel (hydroxypropylcellulose) (HPC)
[11] = dose: 200.0 mg/kg/injection, schedule: Q01DX005 (ip), vehicle: Klucel (hydroxypropylcellulose) (HPC)
[12] = dose: 50.0 mg/kg/injection, schedule: Q01DX009 (ip), vehicle: saline with Tween-80

CC(=O)N(C)c1ccc(Nc2cc(C)[nH]c3ccc4ncnc4c23)cc1
T/C (dose: 5.0 mg/kg/injection, schedule: Q01DX005 (ip), vehicle: saline): 120 % of control and 122 % of control
T/C (dose: 6.25 mg/kg/injection, schedule: Q01DX005 (iv), vehicle: saline): 100 % of control
T/C (dose: 7.0 mg/kg/injection, schedule: Q01DX005 (ip), vehicle: saline): 121 % of control and 123 % of control
T/C (dose: 11.0 mg/kg/injection, schedule: Q01DX005 (ip), vehicle: saline): 123 % of control
T/C (dose: 12.5 mg/kg/injection, schedule: Q01DX001 (iv), vehicle: saline): 104 % of control
T/C (dose: 12.5 mg/kg/injection, schedule: Q01DX005 (iv), vehicle: saline): 106 % of control
T/C (dose: 12.5 mg/kg/injection, schedule: Q01DX005 (oral), vehicle: saline): 101 % of control
T/C (dose: 12.5 mg/kg/injection, schedule: Q01DX009 (oral), vehicle: saline): 95 % of control
T/C (dose: 25.0 mg/kg/injection, schedule: Q01DX001 (ip), vehicle: saline): 110 % of control
T/C (dose: 25.0 mg/kg/injection, schedule: Q01DX001 (iv), vehicle: saline): 100 % of control
T/C (dose: 25.0 mg/kg/injection, schedule: Q01DX001 (oral), vehicle: saline): 101 % of control
T/C (dose: 25.0 mg/kg/injection, schedule: Q01DX005 (iv), vehicle: saline): 105 % of control
T/C (dose: 25.0 mg/kg/injection, schedule: Q01DX005 (oral), vehicle: saline): 100 % of control
T/C (dose: 25.0 mg/kg/injection, schedule: Q01DX009 (oral), vehicle: saline): 94 % of control
T/C (dose: 50.0 mg/kg/injection, schedule: Q01DX001 (ip), vehicle: saline): 123 % of control
T/C (dose: 50.0 mg/kg/injection, schedule: Q01DX001 (iv), vehicle: saline): 103 % of control
T/C (dose: 50.0 mg/kg/injection, schedule: Q01DX001 (oral), vehicle: saline): 99 % of control
T/C [1]: 155 % of control
T/C (dose: 50.0 mg/kg/injection, schedule: Q01DX005 (iv), vehicle: saline): 100 % of control
T/C (dose: 50.0 mg/kg/injection, schedule: Q01DX005 (oral), vehicle: saline): 103 % of control
T/C (dose: 50.0 mg/kg/injection, schedule: Q01DX009 (oral), vehicle: saline): 103 % of control
T/C (dose: 90.0 mg/kg/injection, schedule: Q04DX002 (ip), vehicle: saline): 158 % of control
T/C (dose: 100.0 mg/kg/injection, schedule: Q01DX001 (ip), vehicle: saline): 157 % of control
T/C (dose: 100.0 mg/kg/injection, schedule: Q01DX001 (iv), vehicle: saline): 124 % of control
T/C (dose: 100.0 mg/kg/injection, schedule: Q01DX001 (oral), vehicle: saline): 101 % of control
T/C (dose: 100.0 mg/kg/injection, schedule: Q01DX005 (oral), vehicle: saline): 97 % of control
T/C (dose: 100.0 mg/kg/injection, schedule: Q01DX009 (oral), vehicle: saline): 104 % of control
T/C (dose: 200.0 mg/kg/injection, schedule: Q01DX001 (oral), vehicle: saline): 105 % of control
T/C (dose: 200.0 mg/kg/injection, schedule: Q01DX005 (oral), vehicle: saline): 103 % of control
T/C (dose: 200.0 mg/kg/injection, schedule: Q01DX009 (oral), vehicle: saline): 100 % of control
T/C (dose: 300.0 mg/kg/injection, schedule: Q01DX001 (oral), vehicle: saline): 102 % of control
T/C (dose: 300.0 mg/kg/injection, schedule: Q01DX005 (oral), vehicle: saline): 106 % of control
T/C (dose: 400.0 mg/kg/injection, schedule: Q01DX001 (oral), vehicle: saline): 106 % of control
T/C (dose: 600.0 mg/kg/injection, schedule: Q01DX001 (oral), vehicle: saline): 119 % of control
T/C (dose: 600.0 mg/kg/injection, schedule: Q01DX005 (oral), vehicle: saline): 119 % of control
T/C (dose: 1200.0 mg/kg/injection, schedule: Q01DX001 (oral), vehicle: saline): 119 % of control

Cc1ccc(S(=O)(=O)SSN2CCCCC2)cc1
T/C [2]: 99 % of control
T/C [3]: 101 % of control
T/C [4]: 99 % of control

C1N2CN3CN1CN(C2)C3
T/C [1]: 95 % of control
T/C [5]: 101 % of control
T/C [6]: 96 % of control

C=C(C#N)CSc1c(Cl)c(Cl)c(Cl)c(Cl)c1Cl
T/C (dose: 25.0 mg/kg/injection, schedule: Q04DX003 (ip), vehicle: Klucel (hydroxypropylcellulose) (HPC)): 88 % of control
T/C (dose: 50.0 mg/kg/injection, schedule: Q04DX003 (ip), vehicle: Klucel (hydroxypropylcellulose) (HPC)): 91 % of control
T/C (dose: 100.0 mg/kg/injection, schedule: Q04DX003 (ip), vehicle: Klucel (hydroxypropylcellulose) (HPC)): 93 % of control and 95 % of control
T/C (dose: 200.0 mg/kg/injection, schedule: Q04DX003 (ip), vehicle: Klucel (hydroxypropylcellulose) (HPC)): 100 % of control and 103 % of control
T/C (dose: 400.0 mg/kg/injection, schedule: Q04DX003 (ip), vehicle: Klucel (hydroxypropylcellulose) (HPC)): 105 % of control

C=C(C)C1C2CC3(C)C4(CO4)C4OC4C3(O)C1C(=O)O2 (stereo unspecified)
T/C (dose: 0.31 mg/kg/injection, schedule: Q01DX005 (ip), vehicle: Klucel (hydroxypropylcellulose) (HPC)): 97 % of control
T/C (dose: 0.62 mg/kg/injection, schedule: Q01DX005 (ip), vehicle: Klucel (hydroxypropylcellulose) (HPC)): 100 % of control
T/C (dose: 1.25 mg/kg/injection, schedule: Q01DX005 (ip), vehicle: Klucel (hydroxypropylcellulose) (HPC)): 102 % of control

CC(C)COC(CN(C)C)C(Cl)(Cl)Cl (stereo unspecified)
T/C (dose: 50.0 mg/kg/injection, schedule: Q01DX009 (ip), vehicle: saline): 107 % of control
T/C (dose: 100.0 mg/kg/injection, schedule: Q01DX009 (ip), vehicle: saline): 100 % of control
T/C (dose: 200.0 mg/kg/injection, schedule: Q01DX009 (ip), vehicle: saline): 116 % of control

COc1ccc(NC(=O)CCC(=O)C(C)C(=O)c2ccccc2)cc1 (stereo unspecified)
T/C [2]: 109 % of control
T/C [3]: 114 % of control
T/C [4]: 120 % of control

Cc1cc(NC(=O)CCc2ccc(N3C(N)=NC(N)=NC3(C)C)cc2)ccc1S(=O)(=O)F
T/C (dose: 1.5 mg/kg/injection, schedule: Q01DX009 (ip), vehicle: saline sonified): 122 % of control
T/C [7]: 150 % of control
T/C [8]: 113 % of control

CCN(CC)CCCC(C)Nc1nc(-c2ccccc2)nc2ccccc12 (stereo unspecified)
T/C [1]: 99 % of control
T/C [5]: 101 % of control
T/C [6]: 110 % of control

Nc1ncnc2c1ncn2C1(CO)OCC(O)C(O)C1O (stereo unspecified)
T/C [9]: 101 % of control
T/C [10]: 100 % of control
T/C [11]: 101 % of control

N#Cc1c(N)nc2c(c1N)CC(CO)O2 (stereo unspecified)
T/C [12]: 96 % of control
T/C [8]: 93 % of control

O=S(=O)(O)O.O=S(=O)([O-])[O-].O=[N+]([O-])O.[Co+3].[Co+3].[NH2-].[NH2-].[NH2-].[NH2-].[NH2-].[NH2-].[NH2-].[NH2-].[NH2-]
T/C (dose: 1.0 mg/kg/injection, schedule: Q01DX009 (ip), vehicle: saline): 98 % of control
T/C (dose: 2.0 mg/kg/injection, schedule: Q01DX009 (ip), vehicle: saline): 93 % of control

Cc1ccc(C(=O)/C=C/c2ccccc2)cc1
T/C (dose: 12.5 mg/kg/injection, schedule: Q01DX009 (ip), vehicle: water): 94 % of control
T/C [7]: 92 % of control
T/C (dose: 25.0 mg/kg/injection, schedule: Q01DX009 (ip), vehicle: water): 95 % of control
T/C [12]: 108 % of control
T/C (dose: 50.0 mg/kg/injection, schedule: Q01DX009 (ip), vehicle: water): 99 % of control
T/C [8]: 102 % of control
T/C (dose: 100.0 mg/kg/injection, schedule: Q01DX009 (ip), vehicle: water): 104 % of control
T/C (dose: 200.0 mg/kg/injection, schedule: Q01DX009 (ip), vehicle: saline with Tween-80): 109 % of control
T/C (dose: 200.0 mg/kg/injection, schedule: Q01DX009 (ip), vehicle: water): 96 % of control

NSC(=S)NCc1ccco1
T/C [9]: 106 % of control and 107 % of control
T/C [10]: 101 % of control and 115 % of control
T/C [11]: 115 % of control and 119 % of control

OC(c1cc(-c2ccc(C(F)(F)F)cc2)nc(C(F)(F)F)c1)C1CCCCN1 (stereo unspecified)
T/C (dose: 6.25 mg/kg/injection, schedule: Q01DX009 (ip), vehicle: saline): 101 % of control
T/C (dose: 12.5 mg/kg/injection, schedule: Q01DX009 (ip), vehicle: saline with Tween-80): 95 % of control
T/C (dose: 12.5 mg/kg/injection, schedule: Q01DX009 (ip), vehicle: saline): 103 % of control
T/C [7]: 100 % of control
T/C (dose: 25.0 mg/kg/injection, schedule: Q01DX009 (ip), vehicle: saline): 107 % of control
